The source of these data is ChEMBL document CHEMBL3603807, “Discovery of 2-arylamino-4-(1-methyl-3-isopropylsulfonyl-4-pyrazol-amino)pyrimidines as potent anaplastic lymphoma kinase (ALK) inhibitors” (Bioorg Med Chem Lett, 2015).

Usually IC50 stands for the point on the concentration scale where inhibition reaches its midpoint. Broadly, the AUC(0-inf) is the area under the concentration-time curve extrapolated to infinity. What is called half-life is the time needed for the level to fall by half in the phase considered. A low value points to rapid decline. For orientation: Cmax means the highest concentration seen after dosing. For orientation: clearance means the volume of plasma or blood freed of the substance per unit of time. A word on the Tmax: it is the time at which the peak concentration occurs. Usually Vd stands for a proportionality between amount in the body and measured concentration, not a real space. High values mean extensive tissue distribution, low ones confinement near the circulation. The bioavailability is dose-corrected exposure relative to a reference, in per cent. Low readings indicate poor availability, high ones good availability.

The test system of one data set is NCI-H2228. Briefly: Antiproliferative activity against human NCI-H2228 cells assessed as inhibition of cell proliferation incubated for 96 hrs by cell-titer-Glo assay. The following applies: NCI-H2228, 96 h. Type of data set: functional, cell-based.
Data set [1] is described as follows: Antiproliferative activity against human KARPAS299 cells assessed as inhibition of cell proliferation incubated for 96 hrs by cell-titer-Glo assay. The following applies: KARPAS-299, 96 h. Type of data set: functional, cell-based.
Data set [2] is described as follows: AUC (0 to infinity) in Sprague-Dawley rat at 5 mg/kg, po by LC-MS/MS method. On the set-up: dose 5 mg/kg, time infinity, route oral. The following applies: in vivo. The data set is classed as ADME, organism-based.
Data set [3] in a line: Half life in Sprague-Dawley rat at 1 mg/kg, iv by LC-MS/MS method. The data set is classed as ADME, organism-based. The following applies: in vivo.
Data set [4] is described as follows: Cmax in Sprague-Dawley rat at 5 mg/kg, po by LC-MS/MS method. The data set is classed as ADME, organism-based. Further details: dose 5 mg/kg, route oral. The following applies: in vivo.
A short description of data set [5]: Clearance in beagle dog at 1 mg/kg, iv by LC-MS/MS method. The following applies: in vivo. Type of data set: ADME, organism-based, Canis lupus familiaris.
Data set [6] in a line: AUC (0 to infinity) in beagle dog at 3 mg/kg, po by LC-MS/MS method. The following applies: in vivo. Further details: dose 3 mg/kg, route oral, time infinity. Type of data set: ADME, organism-based, Canis lupus familiaris.
The test system of a further data set is Mus musculus. Briefly: Toxicity in human NCI-H2228 cells xenografted Balb/c mouse EML4-ALK NSCLC model assessed as induction of body weight loss at 30 mg/kg, po qd for 2 weeks. The following applies: in vivo, 336 h. Type of data set: organism-based. For orientation: A xenograft is tissue or cells of one species grown in another, often human tumour cells in immunodeficient mice.

Data set [7] in a line: Tmax in Sprague-Dawley rat at 5 mg/kg, po by LC-MS/MS method. The following applies: in vivo. Type of data set: ADME, organism-based.
Data set [8] in a line: Cmax in beagle dog at 3 mg/kg, po by LC-MS/MS method. The data set is classed as ADME, organism-based, Canis lupus familiaris. On the set-up: dose 3 mg/kg, route oral. The following applies: in vivo.
Data set [9] is described as follows: Volume of distribution in beagle dog at 1 mg/kg, iv by LC-MS/MS method. The following applies: in vivo. Type of data set: ADME, organism-based, Canis lupus familiaris.
A short description of data set [10]: Tmax in beagle dog at 3 mg/kg, po by LC-MS/MS method. The data set is classed as ADME, organism-based, Canis lupus familiaris. The following applies: in vivo.
Data set [11] is described as follows: AUC (0 to infinity) in Sprague-Dawley rat at 1 mg/kg, iv by LC-MS/MS method. Type of data set: ADME, organism-based. The following applies: in vivo. On the set-up: dose 1 mg/kg, route intravenous, time infinity.
Data set [12] is described as follows: Clearance in Sprague-Dawley rat at 1 mg/kg, iv by LC-MS/MS method. The data set is classed as ADME, organism-based. The following applies: in vivo.
A short description of data set [13]: AUC (0 to infinity) in beagle dog at 1 mg/kg, iv by LC-MS/MS method. The data set is classed as ADME, organism-based, Canis lupus familiaris. On the set-up: dose 1 mg/kg, route intravenous, time infinity. The following applies: in vivo.
The nature of data set [14]: Volume of distribution in Sprague-Dawley rat at 1 mg/kg, iv by LC-MS/MS method. Type of data set: ADME, organism-based. The following applies: in vivo.
The nature of data set [15]: Half life in beagle dog at 1 mg/kg, iv by LC-MS/MS method. Type of data set: ADME, organism-based, Canis lupus familiaris. The following applies: in vivo.
The nature of data set [16]: Oral bioavailability in beagle dog at 3 mg/kg by LC-MS/MS method. The data set is classed as ADME, organism-based, Canis lupus familiaris. The following applies: in vivo.
Data set [17] can be described thus: Oral bioavailability in Sprague-Dawley rat at 5 mg/kg by LC-MS/MS method. The data set is classed as ADME, organism-based. The following applies: in vivo.
The nature of data set [18]: Clearance in rat. Type of data set: ADME, organism-based. The following applies: in vivo.
Data set [19] concerns the target ALK tyrosine kinase receptor (Homo sapiens, UniProt Q9UM73, L1196M). Briefly: Inhibition of ALK L1196M mutant (unknown origin) using TK substrate-biotin incubated for 30 mins by HTRF assay.
Data set [20] has as its target ALK tyrosine kinase receptor (Homo sapiens, UniProt Q9UM73). Briefly: Inhibition of wild type human recombinant ALK using TK substrate-biotin incubated for 30 mins by HTRF assay. Background: Time-resolved FRET reads energy transfer from a long-lived donor to a nearby acceptor.

Chain of ALK tyrosine kinase receptor (Homo sapiens, UniProt Q9UM73, L1196M) (Q9UM73 19-1620 L1196M limits assumed): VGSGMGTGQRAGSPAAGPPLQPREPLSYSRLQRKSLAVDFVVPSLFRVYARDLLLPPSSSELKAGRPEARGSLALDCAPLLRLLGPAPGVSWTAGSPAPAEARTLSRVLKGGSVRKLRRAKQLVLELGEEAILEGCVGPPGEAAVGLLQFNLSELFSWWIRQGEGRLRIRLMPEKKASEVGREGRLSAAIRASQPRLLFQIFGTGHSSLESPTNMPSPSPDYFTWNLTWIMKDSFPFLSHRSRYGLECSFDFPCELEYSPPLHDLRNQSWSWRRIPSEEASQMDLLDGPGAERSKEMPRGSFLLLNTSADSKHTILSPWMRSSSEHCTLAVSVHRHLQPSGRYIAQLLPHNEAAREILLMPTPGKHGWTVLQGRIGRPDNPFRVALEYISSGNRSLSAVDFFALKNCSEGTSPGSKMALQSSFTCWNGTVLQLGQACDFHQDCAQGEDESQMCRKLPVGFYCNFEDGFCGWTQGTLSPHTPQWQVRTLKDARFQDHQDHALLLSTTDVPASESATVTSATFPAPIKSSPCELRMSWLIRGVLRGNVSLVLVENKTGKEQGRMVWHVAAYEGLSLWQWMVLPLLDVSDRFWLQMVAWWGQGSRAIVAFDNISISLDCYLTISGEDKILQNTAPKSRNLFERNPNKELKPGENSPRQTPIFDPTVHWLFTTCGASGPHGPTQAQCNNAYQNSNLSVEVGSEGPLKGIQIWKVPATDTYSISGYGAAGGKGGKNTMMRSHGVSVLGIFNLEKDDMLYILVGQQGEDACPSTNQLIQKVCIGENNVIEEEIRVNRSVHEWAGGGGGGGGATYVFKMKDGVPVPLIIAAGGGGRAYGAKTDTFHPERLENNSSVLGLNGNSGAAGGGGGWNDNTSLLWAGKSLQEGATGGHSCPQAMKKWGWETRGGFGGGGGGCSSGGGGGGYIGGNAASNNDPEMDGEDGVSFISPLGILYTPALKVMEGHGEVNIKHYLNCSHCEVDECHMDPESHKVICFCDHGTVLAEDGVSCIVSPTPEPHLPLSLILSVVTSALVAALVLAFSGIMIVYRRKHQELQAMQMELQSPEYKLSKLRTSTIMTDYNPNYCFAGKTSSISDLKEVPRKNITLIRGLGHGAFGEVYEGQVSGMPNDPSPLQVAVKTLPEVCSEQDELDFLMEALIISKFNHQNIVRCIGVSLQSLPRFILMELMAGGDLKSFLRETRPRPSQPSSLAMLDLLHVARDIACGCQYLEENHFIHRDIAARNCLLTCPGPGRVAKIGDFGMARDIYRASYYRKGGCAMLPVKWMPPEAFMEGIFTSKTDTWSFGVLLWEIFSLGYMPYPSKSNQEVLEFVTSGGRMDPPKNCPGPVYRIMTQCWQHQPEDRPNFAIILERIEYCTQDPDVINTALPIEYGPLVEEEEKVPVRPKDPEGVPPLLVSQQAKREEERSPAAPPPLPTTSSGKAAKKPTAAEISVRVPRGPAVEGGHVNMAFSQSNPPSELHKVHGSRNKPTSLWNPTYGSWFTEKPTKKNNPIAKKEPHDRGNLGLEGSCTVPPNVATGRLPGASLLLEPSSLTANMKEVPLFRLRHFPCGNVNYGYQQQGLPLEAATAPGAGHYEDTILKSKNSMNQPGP
Chain of ALK tyrosine kinase receptor (Homo sapiens, UniProt Q9UM73) (Q9UM73 whole entry): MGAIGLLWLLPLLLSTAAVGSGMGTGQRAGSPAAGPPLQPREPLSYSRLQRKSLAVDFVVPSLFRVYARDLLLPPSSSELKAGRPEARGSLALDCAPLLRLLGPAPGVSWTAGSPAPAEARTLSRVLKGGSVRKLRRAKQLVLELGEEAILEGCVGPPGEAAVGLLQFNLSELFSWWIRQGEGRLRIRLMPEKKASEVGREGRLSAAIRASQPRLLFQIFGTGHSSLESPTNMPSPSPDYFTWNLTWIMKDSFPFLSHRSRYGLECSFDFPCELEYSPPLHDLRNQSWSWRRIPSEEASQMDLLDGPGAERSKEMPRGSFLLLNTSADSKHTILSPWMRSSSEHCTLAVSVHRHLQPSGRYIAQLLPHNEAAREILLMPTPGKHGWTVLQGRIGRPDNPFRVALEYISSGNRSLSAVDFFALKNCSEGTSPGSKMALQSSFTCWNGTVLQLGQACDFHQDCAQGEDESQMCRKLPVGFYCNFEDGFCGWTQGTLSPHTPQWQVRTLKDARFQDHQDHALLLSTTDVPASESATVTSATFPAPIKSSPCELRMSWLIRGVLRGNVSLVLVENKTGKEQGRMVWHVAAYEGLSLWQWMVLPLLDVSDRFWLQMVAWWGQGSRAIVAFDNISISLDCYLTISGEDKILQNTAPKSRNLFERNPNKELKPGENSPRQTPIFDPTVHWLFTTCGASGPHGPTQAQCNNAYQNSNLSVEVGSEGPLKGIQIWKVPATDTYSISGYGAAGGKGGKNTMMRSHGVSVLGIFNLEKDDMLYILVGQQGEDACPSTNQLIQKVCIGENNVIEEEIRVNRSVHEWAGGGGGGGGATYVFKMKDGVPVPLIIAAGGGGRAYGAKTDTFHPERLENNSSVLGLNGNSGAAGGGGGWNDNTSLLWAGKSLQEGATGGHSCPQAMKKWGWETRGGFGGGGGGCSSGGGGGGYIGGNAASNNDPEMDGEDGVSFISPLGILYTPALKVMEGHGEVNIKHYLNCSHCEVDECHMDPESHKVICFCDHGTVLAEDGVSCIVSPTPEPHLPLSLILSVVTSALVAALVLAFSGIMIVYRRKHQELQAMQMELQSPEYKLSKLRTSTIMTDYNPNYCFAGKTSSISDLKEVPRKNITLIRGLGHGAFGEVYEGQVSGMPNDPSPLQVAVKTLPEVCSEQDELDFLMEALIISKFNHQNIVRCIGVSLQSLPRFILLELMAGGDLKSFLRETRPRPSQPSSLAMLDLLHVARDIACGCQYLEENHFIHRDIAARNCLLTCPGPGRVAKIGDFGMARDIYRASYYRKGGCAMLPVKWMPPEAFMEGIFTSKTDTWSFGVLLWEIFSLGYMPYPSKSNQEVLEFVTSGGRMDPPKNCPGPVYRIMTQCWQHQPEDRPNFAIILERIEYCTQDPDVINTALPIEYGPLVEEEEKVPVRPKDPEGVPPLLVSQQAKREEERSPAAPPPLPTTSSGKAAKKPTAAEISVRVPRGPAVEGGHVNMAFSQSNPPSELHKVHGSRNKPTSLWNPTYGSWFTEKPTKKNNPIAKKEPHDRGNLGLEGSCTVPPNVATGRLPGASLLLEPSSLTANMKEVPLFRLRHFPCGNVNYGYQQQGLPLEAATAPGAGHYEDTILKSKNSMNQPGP

Turning to `Cc1cc(Nc2ncc(Cl)c(Nc3cn(C)nc3S(=O)(=O)C(C)C)n2)c(OC(C)C)cc1C1CNC1`, the IC50 came to 288 nM with NCI-H2228 and 60 nM in data set [1].
For `Cc1cc(Nc2ncc(Cl)c(Nc3cn(C)nc3S(=O)(=O)C(C)C)n2)c(OC(C)C)cc1C1CCN(C)C1` (stereo not drawn) the same measures were 131 nM and 11 nM.
`CC(C)S(=O)(=O)c1nn(C)cc1Nc1nc(Nc2cc(C#N)c(C3CCN(C)CC3)cc2OC2CC2)ncc1Cl`: the IC50 in the data set with NCI-H2228 turned out to be 165 nM; in [1], 100 nM.
`Cc1cc(Nc2ncc(Cl)c(Nc3cn(C)nc3S(=O)(=O)C(C)C)n2)c(OCC2CC2)cc1C1CCNCC1`: the IC50 with NCI-H2228 was determined as 262 nM; in data set [1], 43 nM.
With `CS(=O)(=O)O.Cc1cc(Nc2ncc(Cl)c(Nc3cn(C)nc3S(=O)(=O)C(C)C)n2)c(OC(C)C)cc1C1CCN(C)CC1`, the AUC(0-inf) in data set [2] came out at 3120 ng·h/mL; in [6] it was 952 ng·h/mL; in data set [11], 988 ng·h/mL; in data set [13], 637 ng·h/mL. Moreover, the half-life in [3] is 5.1 h; in [15], 4.9 h. The Cmax in data set [4] was 199 ng/mL; in data set [8] it was 85.8 ng/mL. Further, the values for the clearance in [5] and in data set [12] were 26.2 mL/min/kg and 16.9 mL/min/kg, respectively. For the same compound, the Activity entry in the data set with Mus musculus is reported as “Non-toxic”. Further, the values for the time to peak (Tmax) in data set [7] and in data set [10] were 6.7 h and 2 h, respectively. Also, the Vd is 11 L/kg in data set [9] and 7.5 L/kg in data set [14]. In addition, the values for the bioavailability in data set [16] and in data set [17] were 49.2% and 63.2%, respectively.
On to `Cc1cc(Nc2ncc(Cl)c(Nc3cn(C)nc3S(=O)(=O)C(C)C)n2)c(OC2CC2)cc1C1CCN(C)CC1`, for which the clearance in data set [18] was determined as 22.7 mL/min/kg.
Take `CCNC(=O)N1CCC(c2cc(OC3CC3)c(Nc3ncc(Cl)c(Nc4cn(C)nc4S(=O)(=O)C(C)C)n3)cc2C)CC1`: the IC50 in data set [19] was 6 nM; with NCI-H2228, 82 nM; in [20] it was 4 nM; in [1], 20 nM.
Take `Cc1cc(Nc2ncc(Cl)c(Nc3cn(C)nc3S(=O)(=O)C(C)C)n2)c(OC2CC2)cc1C1CCN(C(=O)C(C)C)CC1`: the results for the IC50 (in data set [19]; with NCI-H2228; in data set [20]) were 29 nM, 149 nM and 26 nM, respectively.
As to `Cc1cc(Nc2ncc(Cl)c(Nc3cn(C)nc3S(=O)(=O)C(C)C)n2)c(OCC2CC2)cc1C1CCN(C)CC1`, the IC50 with NCI-H2228 was 226 nM; in data set [1] it was 74 nM.
`Cc1cc(Nc2ncc(Cl)c(Nc3cn(C)nc3S(=O)(=O)C(C)C)n2)c(OC2CC2)cc1C1CCNCC1`: the IC50 with NCI-H2228 turned out to be 122 nM; in data set [1] it was 9 nM.
On the same counts, the results for `CC(C)S(=O)(=O)c1nn(C)cc1Nc1nc(Nc2cc(Cl)c(C3CCN(C)CC3)cc2OC2CC2)ncc1Cl` are 103 nM and 15 nM.
In the case of `Cc1cc(Nc2ncc(Cl)c(Nc3cn(C)nc3S(=O)(=O)C(C)C)n2)c(OC(C)C)cc1C1CCNCC1`, the IC50 worked out at 20 nM in data set [19], 225 nM in the data set with NCI-H2228, 8 nM in [20] and 17 nM in data set [1].
As to `Cc1cc(Nc2ncc(Cl)c(Nc3cn(C)nc3S(=O)(=O)C(C)C)n2)c(OC(F)(F)F)cc1C1CCN(C)CC1`, the figures for the half-maximal inhibitory concentration (IC50) (with NCI-H2228; in data set [1]) were 374 nM and 20 nM, respectively.
Turning to `Cc1cc(Nc2ncc(Cl)c(Nc3cn(C)nc3S(=O)(=O)C(C)C)n2)c(OC(CF)CF)cc1C1CCN(C)CC1`, the IC50 worked out at 403 nM with NCI-H2228 and 62 nM in data set [1].
Consider `Cc1cc(Nc2ncc(Cl)c(Nc3cn(C)nc3S(=O)(=O)C(C)C)n2)c(C(F)(F)F)cc1C1CCN(C)CC1`, for which the values for the IC50 (in the data set on NCI-H2228; in [1]) were 1080 nM and 74 nM, respectively.
As to `Cc1cc(Nc2ncc(Cl)c(Nc3cn(C)nc3S(=O)(=O)C(C)C)n2)c(OC(C)C)cc1C1CN(C)C1`, the IC50 was determined as 5 nM in [19], 270 nM with NCI-H2228, 2 nM in data set [20] and 17 nM in data set [1].
On the same counts, the results for `Cc1cc(Nc2ncc(Cl)c(Nc3cn(C)nc3S(=O)(=O)C(C)C)n2)c(OC2CC2)cc1C1CCCN(C)C1` (stereo not drawn) are 7 nM, 32 nM, 3 nM and 3 nM.
Turning to `Cc1cc(Nc2ncc(Cl)c(Nc3cn(C)nc3S(=O)(=O)C(C)C)n2)c(C(C)C)cc1C1CCN(C)CC1`, the IC50 with NCI-H2228 is 660 nM.
`Cc1cc(Nc2ncc(Cl)c(Nc3cn(C)nc3S(=O)(=O)C(C)C)n2)c(OC(C)C)cc1C1CCNC1` (stereo not drawn): the IC50 in the data set with NCI-H2228 was found to be 364 nM; in data set [1] it was 28 nM.
Compound `CC(C)S(=O)(=O)c1nn(C)cc1Nc1nc(Nc2ccc(C3CCN(C)CC3)cc2OC2CC2)ncc1Cl` had a clearance in data set [18] of 79.8 mL/min/kg. In addition, the IC50 in the data set on NCI-H2228 turned out to be 36 nM; in [1], 7 nM.
